Where two headings read alike, the source gives them in different places.
Tested on: S. aureus Mu3
Assay: Secondary screening of compound 13 analogues in combination with gentamicin (growth by OD 595 nm)
Details: for 20 μM + 200 μg/ml Gentamicin Growth inhibition Percentage: 20 μM compound + 200 μg/ml gentamicin; for inhibition at 50 µM / activity at 5 µM / activity at 20 µM / activity at 50 µM / inhibition at 20 µM: Staphylococcus aureus; for activity at 5 µM / activity at 20 µM / activity at 50 µM: MU3, 16 h; for 50 μM + 200 μg/ml Gentamicin Growth inhibition Percentage: 50 μM compound + 200 μg/ml gentamicin
[1] = [Cpd] 5 μM, BHI only (no gentamicin), relative to DMSO = 1
[2] = [Cpd] 5 μM, [Genta] 100 ug/ml, relative to DMSO = 1
[3] = [Cpd] 5 μM, [Genta] 200 ug/ml, relative to DMSO = 1
[4] = [Cpd] 20 μM, BHI only (no gentamicin), relative to DMSO = 1
[5] = [Cpd] 20 μM, [Genta] 100 ug/ml, relative to DMSO = 1
[6] = [Cpd] 20 μM, [Genta] 200 ug/ml, relative to DMSO = 1
[7] = [Cpd] 50 μM, BHI only (no gentamicin), relative to DMSO = 1
[8] = [Cpd] 50 μM, [Genta] 100 ug/ml, relative to DMSO = 1
[9] = [Cpd] 50 μM, [Genta] 200 ug/ml, relative to DMSO = 1
[10] = MU3, read-out: 50 μM + 200 μg/ml Gentamicin Growth inhibition Percentage, 50 μM compound + 200 μg/ml gentamicin, S. aureus Mu3
[11] = MU3, read-out: 20 μM + 200 μg/ml Gentamicin Growth inhibition Percentage
[12] = MU3, read-out: 50 μM + 200 μg/ml Gentamicin Growth inhibition Percentage
[13] = read-out: relative growth, [Cpd] 5 μM, BHI only (no gentamicin), relative to DMSO = 1
[14] = read-out: relative growth, [Cpd] 20 μM, BHI only (no gentamicin), relative to DMSO = 1
[15] = read-out: relative growth, [Cpd] 50 μM, BHI only (no gentamicin), relative to DMSO = 1

Description: All screening is done in 384-well polystyrene microtiter plates (Greiner Bio-One). Overnight culture of Mu3 is washed with BHI medium 3 times, diluted and plated to give 5×10^5 CFU/mL per well. The plates are incubated at 37° C. for 16 hours and growth is monitored by optical density reading at 595 nm using an automated DTX 880 multimode detector. Screening using BHI medium is designated as the background screen. […] Sub MIC concentration of antibiotics is selected for screening. BHI containing a final concentration for gentamicin 156.25 μg/mL is used correspondingly for individual experiments. […] Screening results with various antibiotics is normalized with the background screening to calculate the percentage of growth inhibition.
Identical experimental procedures are performed as primary screening procedures, except different concentrations of selected compound are tested.
Secondary like screening was performed with different concentrations of each analogue compounds were tested with different gentamicin concentration, 50 μM, 20 μM and 5 μM compound concentration were used against, BHI containing, 0 μg/ml, 100 μg/ml and 200 μg/ml gentamicin.

| Structure (SMILES) | relative growth [2] | relative growth [3] | relative growth [5] | relative growth [6] | relative growth [8] | relative growth [9] | activity at 5 µM (read-out: relative growth) | activity at 20 µM (read-out: relative growth) | activity at 50 µM (read-out: relative growth) | inhibition at 20 µM [11] | inhibition at 50 µM [12] | further results |
| --- | --- | --- | --- | --- | --- | --- | --- | --- | --- | --- | --- | --- |
| O=C(O)CN1C(=O)/C(=C/c2ccccc2)SC1=S [Compound 1] | 1.29 | 1.45 | 1.1 | 1.05 | 1.11 | 1.01 |  |  |  |  |  | relative growth [1]: 1.38; relative growth [4]: 1.22; relative growth [7]: 1 |
| COC(=O)c1ccccc1 [Compound 2] | 1.1 | 1.2 | 0.93 | 0.65 | 0.62 | *0.24 |  |  |  |  |  | 20 μM + 200 μg/ml Gentamicin Growth inhibition Percentage (S. aureus Mu3, 20 µM): 35%; inhibition at 50 µM [10]: 76%; relative growth [1]: 1.15; relative growth [4]: 1.08; relative growth [7]: 1.07 |
| COc1cc(/C=C2\SC(=S)N(CC(=O)O)C2=O)ccc1OCc1ccc(Cl)cc1 [Compound 6] | 1.13 | 1.11 | 0.61 | *0.1 | *0.2 | *0.11 | 120% | 114% | 79% | 90% | 89% |  |
| COc1ccc(/C=C2\SC(=S)N(CC(=O)O)C2=O)cc1OCc1ccc(Cl)cc1 [Compound 15] | 1.01 | 1 | 0.52 | *0.09 | *0.18 | *0.11 | 102% | 97% | 79% | 91% | 89% |  |
| COc1ccc(/C=C2\SC(=S)N(CC(=O)O)C2=O)cc1OCc1ccc(Cl)cc1Cl [Compound 18] | 0.97 | 0.9 | 0.8 | 0.76 | 0.88 | 0.7 | 98% | 85% | 97% | 24% | 30% |  |
| COc1cc(/C=C2\SC(=S)N(CC(=O)O)C2=O)ccc1OCc1ccccc1 [Compound 22] | 1.08 | 1.05 | 0.99 | 0.88 | 0.91 | 0.52 | 108% | 101% | 94% | 12% | 48% |  |
| COc1ccc(/C=C2\SC(=S)N(CC(=O)O)C2=O)cc1OCc1ccccc1 [Compound 24] | 0.94 | 0.95 | 0.92 | 0.73 | 0.72 | *0.32 | 96% | 93% | 92% | 27% | 68% |  |
| COc1cc(/C=C2\SC(=S)N(CC(=O)O)C2=O)ccc1OCc1ccccc1F [Compound 25] | 0.95 | 0.92 | 0.89 | 0.62 | 0.91 | 0.42 | 96% | 91% | 95% | 38% | 58% |  |
| COC(=O)c1ccccc1 [Compound 29] | 0.94 | 0.89 | 0.67 | *0.39 | *0.11 | *0.08 |  |  |  |  |  | 20 μM + 200 μg/ml Gentamicin Growth inhibition Percentage (S. aureus Mu3, 20 µM): 61%; 50 μM + 200 μg/ml Gentamicin Growth inhibition Percentage (S. aureus Mu3, 50 µM): 92%; activity at 5 µM [13]: 96%; activity at 20 µM [14]: 90%; activity at 50 µM [15]: 89% |
| CCOc1ccc(/C=C2\SC(=S)N(CC(=O)O)C2=O)cc1 [Compound 31] | 0.98 | 0.95 | 0.98 | 0.77 | 0.98 | 0.61 | 99% | 96% | 98% | 23% | 39% |  |
| CCOc1cc(/C=C2\SC(=S)N(CC(=O)O)C2=O)ccc1OCc1ccc(Cl)c(Cl)c1 [Compound 34] | 0.9 | *0.24 | 0.67 | *0.33 | 1.16 | 0.57 | 112% | 109% | 113% | 67% | 43% |  |
| COc1cc(/C=C2\SC(=S)N(CC(=O)O)C2=O)ccc1OCc1ccc(Br)cc1 [Compound 44] | 1.02 | 0.83 | 0.99 | 0.83 | 0.97 | 0.47 | 103% | 103% | 98% | 17% | 53% |  |
| COc1cc(C=C2SC(=S)N(CC(=O)O)C2=O)ccc1OCc1ccc(F)cc1Cl [Compound 50] | 0.91 | 0.87 | 0.82 | 0.64 | 0.9 | 0.6 |  |  |  |  |  | 20 μM + 200 μg/ml Gentamicin Growth inhibition Percentage (S. aureus Mu3): 36%; 50 μM + 200 μg/ml Gentamicin Growth inhibition Percentage (S. aureus Mu3): 40%; relative growth [1]: 0.93; relative growth [4]: 0.82; relative growth [7]: 0.96 |
| COCc1ccccc1 [Compound 52] | 0.96 | 0.93 | 0.89 | 0.69 | 0.74 | *0.36 |  |  |  |  |  | activity at 5 µM [13]: 95%; activity at 20 µM [14]: 86%; activity at 50 µM [15]: 76%; inhibition at 20 µM (MU3, read-out: 20 μM + 200 μg/ml Gentamicin Growth inhibition Percentage, 20 μM compound + 200 μg/ml gentamicin, S. aureus Mu3): 31%; inhibition at 50 µM [10]: 64% |
| CC(C(=O)O)N1C(=O)/C(=C/c2ccc(Cl)cc2)SC1=S (centres unmarked) [Compound 53] | 0.92 | 0.89 | 0.9 | 0.76 | 0.84 | *0.38 | 93% | 89% | 88% | 24% | 62% |  |
| O=C(O)CN1C(=O)/C(=C/c2cccc(OCc3ccccc3F)c2)SC1=S [Compound 63] | 0.97 | 0.88 | 0.67 | *0.35 | *0.11 | *0.08 | 97% | 93% | 84% | 65% | 92% |  |
| COC(=O)CN1C(=O)C(=Cc2ccc(OCc3ccccc3)cc2)SC1=S [Compound 69] | 0.97 | 0.98 | 0.56 | *0.11 | *0.27 | *0.23 |  |  |  |  |  | 20 μM + 200 μg/ml Gentamicin Growth inhibition Percentage (S. aureus Mu3): 89%; 50 μM + 200 μg/ml Gentamicin Growth inhibition Percentage (S. aureus Mu3): 77%; relative growth [1]: 0.97; relative growth [4]: 1.02; relative growth [7]: 0.55 |

— patent US20190307729A1, “ANTIMICROBIAL COMPOUNDS AND METHODS FOR USE THEREOF” (VERSITECH LIMITED, priority 2016, published 2019)
